These are literature values, as cited in paper PMC5516028, “Molecular tools for GABAA receptors: High affinity ligands for β1-containing subtypes” (Scientific Reports, 2017).

Holding throughout (design): method as in earlier work
Conditions in all cases: published data, ref 1 (Supplementary References), read-out: Approximate EC50; cited from earlier work

In data set [1] the target is α1β1γ2 GABAA receptors.
The target of data set [2] is T1, α2β3γ2 GABAA receptors (Rattus norvegicus, UniProt P23576+P63079).
T1 construct: expressed in transfected cells; host or cells: Xenopus laevis oocytes, mRNA injected

The target in data set [3] is α2β2γ2 GABAA receptors.
In data set [4] the target is T2, α3β3 GABAA receptors (Rattus norvegicus, UniProt P20236+P63079).
T2 construct: expressed in transfected cells; host or cells: Xenopus laevis oocytes, mRNA injected

In data set [5] the target is α5β1γ2 GABAA receptors.
In data set [6] the target is T3, α4β3γ2 GABAA receptors (Rattus norvegicus, UniProt P28471+P63079).
T3 construct: expressed in transfected cells; host or cells: Xenopus laevis oocytes, mRNA injected

Data set [7] addresses T4, α2β3 GABAA receptors (Rattus norvegicus, UniProt P23576+P63079).
T4 construct: expressed in transfected cells; host or cells: Xenopus laevis oocytes, mRNA injected

Data set [8] addresses T5, α1β3γ2 GABAA receptors (Rattus norvegicus, UniProt P62813+P63079).
T5 construct: expressed in transfected cells; host or cells: Xenopus laevis oocytes, mRNA injected

The target of data set [9] is α2β1γ2 GABAA receptors.

T5 sequence (P62813 28-455): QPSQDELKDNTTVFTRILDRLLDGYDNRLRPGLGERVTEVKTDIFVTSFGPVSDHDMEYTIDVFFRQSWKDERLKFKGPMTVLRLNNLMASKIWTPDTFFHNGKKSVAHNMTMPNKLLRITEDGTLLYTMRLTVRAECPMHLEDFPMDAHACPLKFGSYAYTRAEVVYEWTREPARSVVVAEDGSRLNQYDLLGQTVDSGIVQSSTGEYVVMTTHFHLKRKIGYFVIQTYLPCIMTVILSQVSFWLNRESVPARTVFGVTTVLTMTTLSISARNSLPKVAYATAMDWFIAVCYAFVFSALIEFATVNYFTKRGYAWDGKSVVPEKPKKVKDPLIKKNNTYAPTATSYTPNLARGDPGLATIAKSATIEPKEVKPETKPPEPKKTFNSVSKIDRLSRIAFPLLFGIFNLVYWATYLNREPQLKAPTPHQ
T5 sequence (P63079 26-473): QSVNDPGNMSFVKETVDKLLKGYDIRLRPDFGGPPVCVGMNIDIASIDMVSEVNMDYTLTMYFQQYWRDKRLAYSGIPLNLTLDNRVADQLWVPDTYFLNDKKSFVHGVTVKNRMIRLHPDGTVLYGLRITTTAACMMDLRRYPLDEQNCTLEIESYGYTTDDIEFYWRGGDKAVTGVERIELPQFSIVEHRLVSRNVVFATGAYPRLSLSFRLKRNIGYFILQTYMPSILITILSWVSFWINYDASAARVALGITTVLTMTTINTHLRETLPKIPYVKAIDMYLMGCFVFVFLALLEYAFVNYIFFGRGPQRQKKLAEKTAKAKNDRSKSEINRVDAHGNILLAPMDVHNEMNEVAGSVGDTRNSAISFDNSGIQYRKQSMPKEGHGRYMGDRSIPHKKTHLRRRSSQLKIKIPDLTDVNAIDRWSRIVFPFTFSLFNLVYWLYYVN
T5 sequence (P18508 39-466 partner): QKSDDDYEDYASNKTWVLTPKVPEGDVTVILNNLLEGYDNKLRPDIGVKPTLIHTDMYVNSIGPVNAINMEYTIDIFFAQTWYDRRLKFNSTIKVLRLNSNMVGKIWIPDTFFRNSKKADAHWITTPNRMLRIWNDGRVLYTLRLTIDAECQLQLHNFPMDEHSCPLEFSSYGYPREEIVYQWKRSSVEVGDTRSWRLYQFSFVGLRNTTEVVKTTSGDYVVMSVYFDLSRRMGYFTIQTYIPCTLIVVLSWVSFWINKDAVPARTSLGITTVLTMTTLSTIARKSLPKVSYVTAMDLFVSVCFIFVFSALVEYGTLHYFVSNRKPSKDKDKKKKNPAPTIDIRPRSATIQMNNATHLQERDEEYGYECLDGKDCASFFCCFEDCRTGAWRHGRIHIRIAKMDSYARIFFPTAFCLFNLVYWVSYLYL
T3 sequence (P28471 36-552): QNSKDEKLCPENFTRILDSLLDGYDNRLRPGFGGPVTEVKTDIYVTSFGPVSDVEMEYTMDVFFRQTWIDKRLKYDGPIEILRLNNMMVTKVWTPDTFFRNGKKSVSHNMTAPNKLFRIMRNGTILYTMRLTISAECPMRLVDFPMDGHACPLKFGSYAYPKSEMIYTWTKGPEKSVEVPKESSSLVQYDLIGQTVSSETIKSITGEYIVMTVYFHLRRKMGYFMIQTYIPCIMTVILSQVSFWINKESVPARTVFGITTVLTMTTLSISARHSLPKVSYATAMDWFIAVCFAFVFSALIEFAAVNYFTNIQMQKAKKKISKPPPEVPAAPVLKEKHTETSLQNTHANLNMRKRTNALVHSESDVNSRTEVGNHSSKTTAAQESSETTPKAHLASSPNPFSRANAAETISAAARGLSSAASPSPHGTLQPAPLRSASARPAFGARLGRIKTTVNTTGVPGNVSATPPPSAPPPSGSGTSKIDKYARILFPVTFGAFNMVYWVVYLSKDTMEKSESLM
T3 sequence (P63079 26-473): as the sequence (P63079 26-473) above
T3 sequence (P18508 39-466 partner): as the sequence (P18508 39-466 partner) above
T2 sequence (P20236 29-493): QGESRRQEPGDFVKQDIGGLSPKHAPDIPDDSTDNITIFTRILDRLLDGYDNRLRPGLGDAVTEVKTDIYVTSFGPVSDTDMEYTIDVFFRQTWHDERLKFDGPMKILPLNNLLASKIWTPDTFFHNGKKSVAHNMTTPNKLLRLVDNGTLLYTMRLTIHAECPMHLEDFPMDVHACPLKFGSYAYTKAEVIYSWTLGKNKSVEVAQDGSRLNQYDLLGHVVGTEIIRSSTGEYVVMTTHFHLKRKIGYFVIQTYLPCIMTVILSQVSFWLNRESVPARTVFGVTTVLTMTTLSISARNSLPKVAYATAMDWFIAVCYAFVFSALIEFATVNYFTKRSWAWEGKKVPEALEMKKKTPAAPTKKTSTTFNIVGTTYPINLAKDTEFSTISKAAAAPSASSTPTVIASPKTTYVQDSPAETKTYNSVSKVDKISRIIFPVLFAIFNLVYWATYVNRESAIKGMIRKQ
T2 sequence (P63079 26-473): as the sequence (P63079 26-473) above
T4 sequence (P23576 29-451): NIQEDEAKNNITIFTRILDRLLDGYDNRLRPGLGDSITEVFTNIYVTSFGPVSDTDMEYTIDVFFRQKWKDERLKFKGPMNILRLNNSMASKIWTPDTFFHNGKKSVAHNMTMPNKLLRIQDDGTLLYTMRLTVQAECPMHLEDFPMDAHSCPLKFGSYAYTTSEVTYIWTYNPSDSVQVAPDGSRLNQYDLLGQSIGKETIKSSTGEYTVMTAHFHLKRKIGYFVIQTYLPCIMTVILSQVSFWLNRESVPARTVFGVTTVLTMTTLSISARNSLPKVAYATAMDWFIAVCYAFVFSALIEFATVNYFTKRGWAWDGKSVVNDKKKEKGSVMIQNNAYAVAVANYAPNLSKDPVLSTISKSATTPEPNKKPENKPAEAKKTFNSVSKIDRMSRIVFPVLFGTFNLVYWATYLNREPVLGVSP
T4 sequence (P63079 26-473): as the sequence (P63079 26-473) above
T1 sequence (P23576 29-451): as the sequence (P23576 29-451) above
T1 sequence (P63079 26-473): as the sequence (P63079 26-473) above
T1 sequence (P18508 39-466 partner): as the sequence (P18508 39-466 partner) above

As for `COc1ccc(-n2nc3c4cc(Cl)ccc4[nH]cc-3c2=O)cc1` [Compound 1, 8-Chloro-2-(4-methoxyphenyl)-2H-pyrazolo[4,3-c]quinolin-3(5H)-one], the EC50 (commonly the concentration at which the effect is half-maximal) in [1] was roughly 0.1 µM; in data set [2], roughly 2.2 µM; in data set [3] it was roughly 3.5 µM; in data set [4], roughly 1.8 µM; in data set [5], roughly 0.05 µM; in data set [6], roughly 0.9 µM. Further, the EC50 in [7] was roughly 3 µM; in data set [8] it was roughly 1.8 µM; in [9], roughly 0.05 µM.
